Measurements as given in ChEMBL document CHEMBL1146153, “A metabolically stable tight-binding transition-state inhibitor of glyoxalase-I” (Bioorg Med Chem Lett, 2006).

Tests used:
[1] = Stability against equine kidney gamma-glutamyltranspeptidase mediated breakdown at pH 8.4 after 15 mins; type: ADME, tissue-based; settings: pH 8.4, 0.25 h
[2] = Stability against equine kidney gamma-glutamyltranspeptidase mediated breakdown at pH 8.4 after 15 hrs; type: ADME; settings: pH 8.4, 15 h
Glyoxalase I = target: T1, Glyoxalase I (Saccharomyces cerevisiae S288c, UniProt P50107); experiment: Inhibition of yeast glyoxalase1
T1 sequence (P50107 whole entry): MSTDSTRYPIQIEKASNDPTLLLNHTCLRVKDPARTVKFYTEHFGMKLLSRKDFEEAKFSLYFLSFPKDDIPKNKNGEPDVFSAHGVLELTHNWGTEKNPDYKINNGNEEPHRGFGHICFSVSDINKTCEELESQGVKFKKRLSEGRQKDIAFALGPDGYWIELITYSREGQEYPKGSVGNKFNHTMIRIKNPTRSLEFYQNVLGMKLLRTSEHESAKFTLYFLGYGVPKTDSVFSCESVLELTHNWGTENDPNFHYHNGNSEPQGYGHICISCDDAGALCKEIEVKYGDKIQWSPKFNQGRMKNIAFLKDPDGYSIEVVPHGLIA

Row | Structure (SMILES) | Activity [1] | Stability [2] | Ki (Glyoxalase I)
1 | N[C@@H](CCC(=O)N[C@@H](CSC(=O)N(O)c1ccc(Br)cc1)C(=O)NCC(=O)O)C(=O)O | Not Active | – | –
2 | N[C@@H](CCC(=O)N[C@@H](CSCc1ccc(Br)cc1)C(=O)NCC(=O)O)C(=O)O | Not Active | – | –
3 | N[C@@H](CNC(=O)N[C@@H](CSC(=O)N(O)c1ccc(Br)cc1)C(=O)NCC(=O)O)C(=O)O | – | Stable | 2190 nM
